Reference: ChEMBL document CHEMBL1201862, “PubChem BioAssay data set” (2004)
Active and inactive are the calls of the source.

Columns and labels:
[1] = biological target: T1, Sentrin-specific protease 6 (Homo sapiens, UniProt Q9GZR1); type: functional;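 further: Luminescence-based dose-response confirmatory assay of SENP6 inhibition, following up an ultra-high-throughput screen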
T1 sequence (Q9GZR1 whole entry): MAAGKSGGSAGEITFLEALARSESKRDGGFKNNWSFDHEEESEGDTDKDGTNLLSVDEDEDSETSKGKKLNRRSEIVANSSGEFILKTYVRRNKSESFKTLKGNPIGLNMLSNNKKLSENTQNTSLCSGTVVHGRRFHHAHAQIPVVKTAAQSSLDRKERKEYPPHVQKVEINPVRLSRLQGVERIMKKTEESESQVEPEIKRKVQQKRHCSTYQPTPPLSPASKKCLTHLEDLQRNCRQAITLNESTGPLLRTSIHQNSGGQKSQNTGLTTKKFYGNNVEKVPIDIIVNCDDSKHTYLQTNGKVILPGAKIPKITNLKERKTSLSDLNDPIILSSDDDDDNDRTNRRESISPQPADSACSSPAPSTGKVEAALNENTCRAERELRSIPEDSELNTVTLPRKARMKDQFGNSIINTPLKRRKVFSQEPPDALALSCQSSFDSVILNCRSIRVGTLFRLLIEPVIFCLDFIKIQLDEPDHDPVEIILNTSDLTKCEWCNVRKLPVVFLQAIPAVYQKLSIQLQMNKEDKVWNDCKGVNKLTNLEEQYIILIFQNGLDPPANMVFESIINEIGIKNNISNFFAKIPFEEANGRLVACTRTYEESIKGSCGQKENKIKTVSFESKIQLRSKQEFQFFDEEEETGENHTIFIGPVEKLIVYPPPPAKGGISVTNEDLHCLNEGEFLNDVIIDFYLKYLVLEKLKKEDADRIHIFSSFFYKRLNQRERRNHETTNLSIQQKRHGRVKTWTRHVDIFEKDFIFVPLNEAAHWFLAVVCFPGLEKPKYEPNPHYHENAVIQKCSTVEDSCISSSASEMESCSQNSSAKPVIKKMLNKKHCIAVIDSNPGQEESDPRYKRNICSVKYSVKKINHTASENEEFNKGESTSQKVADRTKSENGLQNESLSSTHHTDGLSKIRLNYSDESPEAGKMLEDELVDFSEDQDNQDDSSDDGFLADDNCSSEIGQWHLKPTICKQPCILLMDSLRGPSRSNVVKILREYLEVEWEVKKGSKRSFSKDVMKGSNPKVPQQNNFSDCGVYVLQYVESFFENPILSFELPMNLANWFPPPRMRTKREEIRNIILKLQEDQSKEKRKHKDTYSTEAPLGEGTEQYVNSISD

[2] = biological target: Vascular endothelial growth factor receptor 3 (Homo sapiens, UniProt P35916); type: functional;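 further: value from a kinome-wide profiling panel, with FLT4 as the panel member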
[3] = biological target: Ribosomal protein S6 kinase beta-1 (Homo sapiens, UniProt P23443); type: functional;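 further: measured as one member of a kinome-wide profiling panel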
[4] = biological target: Protein kinase C gamma type (Homo sapiens, UniProt P05129); type: functional
[5] = biological target: Serine/threonine-protein kinase PAK 1 (Homo sapiens, UniProt Q13153); type: functional
Insulin-degrading enzyme [6] = biological target: T2, Insulin-degrading enzyme (Homo sapiens, UniProt P14735); assay: cellular IDE activation of Abeta substrate cleavage – fluorescence polarization, HEK cells, dose response (AID 588439); type: functional, cell-based
T2 sequence (P14735 whole entry): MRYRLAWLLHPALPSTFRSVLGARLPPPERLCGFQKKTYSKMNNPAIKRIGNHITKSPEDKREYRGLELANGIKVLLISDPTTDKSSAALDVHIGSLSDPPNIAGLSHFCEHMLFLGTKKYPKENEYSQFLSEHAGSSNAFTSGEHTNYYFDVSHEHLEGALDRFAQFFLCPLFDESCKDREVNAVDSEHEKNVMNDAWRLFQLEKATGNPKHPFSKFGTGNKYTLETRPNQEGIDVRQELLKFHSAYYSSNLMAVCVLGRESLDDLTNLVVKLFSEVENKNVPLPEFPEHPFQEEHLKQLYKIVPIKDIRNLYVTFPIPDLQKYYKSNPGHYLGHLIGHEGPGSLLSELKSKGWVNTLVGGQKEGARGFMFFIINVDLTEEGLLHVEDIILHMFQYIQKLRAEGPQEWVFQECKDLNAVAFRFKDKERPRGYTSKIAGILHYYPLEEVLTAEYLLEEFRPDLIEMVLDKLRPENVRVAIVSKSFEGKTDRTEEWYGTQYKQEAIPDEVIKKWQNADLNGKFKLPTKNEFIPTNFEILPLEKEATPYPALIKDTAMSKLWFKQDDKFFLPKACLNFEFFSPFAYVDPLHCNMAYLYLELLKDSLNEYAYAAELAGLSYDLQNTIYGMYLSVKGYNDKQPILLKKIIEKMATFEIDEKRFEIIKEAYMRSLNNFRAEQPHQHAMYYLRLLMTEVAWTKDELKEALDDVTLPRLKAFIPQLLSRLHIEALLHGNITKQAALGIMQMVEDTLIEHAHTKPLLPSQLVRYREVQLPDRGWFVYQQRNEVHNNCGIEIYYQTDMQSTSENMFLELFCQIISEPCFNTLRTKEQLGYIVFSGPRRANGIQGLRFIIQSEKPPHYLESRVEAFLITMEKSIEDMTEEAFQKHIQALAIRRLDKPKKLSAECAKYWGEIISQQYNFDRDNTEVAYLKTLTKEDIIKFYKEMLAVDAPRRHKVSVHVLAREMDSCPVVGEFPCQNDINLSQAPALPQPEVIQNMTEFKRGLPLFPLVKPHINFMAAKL

Insulin-degrading enzyme [7] = biological target: T2, Insulin-degrading enzyme; assay: recombinant IDE activation, cell-free – biochemical, fluorescence polarization, counter-screen for IDE activator project, dose response (AID 588681)

Vascular endothelial growth factor receptor 3, sequence (P35916 whole entry): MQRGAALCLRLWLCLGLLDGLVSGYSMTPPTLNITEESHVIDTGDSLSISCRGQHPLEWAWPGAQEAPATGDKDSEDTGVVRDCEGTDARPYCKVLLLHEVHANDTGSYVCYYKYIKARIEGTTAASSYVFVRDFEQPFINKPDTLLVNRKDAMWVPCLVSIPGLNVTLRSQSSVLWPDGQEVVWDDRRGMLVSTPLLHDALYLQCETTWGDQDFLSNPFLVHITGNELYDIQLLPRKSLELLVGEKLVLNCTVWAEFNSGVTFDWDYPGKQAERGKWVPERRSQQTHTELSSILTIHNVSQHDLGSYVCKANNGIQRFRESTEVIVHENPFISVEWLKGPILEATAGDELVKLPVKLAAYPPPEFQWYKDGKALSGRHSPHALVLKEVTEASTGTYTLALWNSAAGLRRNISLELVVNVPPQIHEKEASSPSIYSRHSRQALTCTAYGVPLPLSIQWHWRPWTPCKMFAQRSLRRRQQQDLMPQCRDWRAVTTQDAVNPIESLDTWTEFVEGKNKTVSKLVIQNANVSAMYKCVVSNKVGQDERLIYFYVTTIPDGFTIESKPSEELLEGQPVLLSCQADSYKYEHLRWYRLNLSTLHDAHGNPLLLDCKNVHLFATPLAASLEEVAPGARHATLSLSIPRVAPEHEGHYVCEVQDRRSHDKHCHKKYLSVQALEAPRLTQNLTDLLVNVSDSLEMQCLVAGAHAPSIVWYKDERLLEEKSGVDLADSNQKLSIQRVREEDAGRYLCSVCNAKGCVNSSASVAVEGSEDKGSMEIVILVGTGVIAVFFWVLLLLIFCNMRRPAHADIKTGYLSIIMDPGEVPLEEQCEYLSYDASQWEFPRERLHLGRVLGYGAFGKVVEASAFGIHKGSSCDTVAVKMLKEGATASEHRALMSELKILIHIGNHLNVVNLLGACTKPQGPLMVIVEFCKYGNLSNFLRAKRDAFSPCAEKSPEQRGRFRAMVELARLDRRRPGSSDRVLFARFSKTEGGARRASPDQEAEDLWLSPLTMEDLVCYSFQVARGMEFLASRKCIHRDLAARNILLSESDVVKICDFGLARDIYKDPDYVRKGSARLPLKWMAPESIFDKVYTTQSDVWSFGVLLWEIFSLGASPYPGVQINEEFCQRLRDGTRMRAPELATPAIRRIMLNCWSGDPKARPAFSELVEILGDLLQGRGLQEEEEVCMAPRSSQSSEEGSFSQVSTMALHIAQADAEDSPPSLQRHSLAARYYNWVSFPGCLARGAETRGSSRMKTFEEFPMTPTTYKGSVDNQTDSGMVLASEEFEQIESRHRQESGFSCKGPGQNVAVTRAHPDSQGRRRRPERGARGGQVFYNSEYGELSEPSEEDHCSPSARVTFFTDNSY
Serine/threonine-protein kinase PAK 1, sequence (Q13153 whole entry): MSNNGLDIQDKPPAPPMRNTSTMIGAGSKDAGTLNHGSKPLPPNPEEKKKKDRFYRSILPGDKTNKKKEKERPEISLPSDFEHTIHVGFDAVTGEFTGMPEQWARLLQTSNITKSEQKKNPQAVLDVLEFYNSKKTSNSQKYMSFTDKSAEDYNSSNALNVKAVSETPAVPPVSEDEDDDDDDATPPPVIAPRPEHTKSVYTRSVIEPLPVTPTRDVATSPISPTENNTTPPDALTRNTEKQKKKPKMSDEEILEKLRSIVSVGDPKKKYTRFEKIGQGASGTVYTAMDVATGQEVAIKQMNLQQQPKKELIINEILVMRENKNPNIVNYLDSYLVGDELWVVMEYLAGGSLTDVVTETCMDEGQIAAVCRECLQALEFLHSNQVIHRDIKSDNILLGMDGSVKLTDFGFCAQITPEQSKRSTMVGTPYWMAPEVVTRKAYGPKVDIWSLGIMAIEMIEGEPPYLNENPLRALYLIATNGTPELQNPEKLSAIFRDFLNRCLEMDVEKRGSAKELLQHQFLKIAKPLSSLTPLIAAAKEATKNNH
Ribosomal protein S6 kinase beta-1, sequence (P23443 whole entry): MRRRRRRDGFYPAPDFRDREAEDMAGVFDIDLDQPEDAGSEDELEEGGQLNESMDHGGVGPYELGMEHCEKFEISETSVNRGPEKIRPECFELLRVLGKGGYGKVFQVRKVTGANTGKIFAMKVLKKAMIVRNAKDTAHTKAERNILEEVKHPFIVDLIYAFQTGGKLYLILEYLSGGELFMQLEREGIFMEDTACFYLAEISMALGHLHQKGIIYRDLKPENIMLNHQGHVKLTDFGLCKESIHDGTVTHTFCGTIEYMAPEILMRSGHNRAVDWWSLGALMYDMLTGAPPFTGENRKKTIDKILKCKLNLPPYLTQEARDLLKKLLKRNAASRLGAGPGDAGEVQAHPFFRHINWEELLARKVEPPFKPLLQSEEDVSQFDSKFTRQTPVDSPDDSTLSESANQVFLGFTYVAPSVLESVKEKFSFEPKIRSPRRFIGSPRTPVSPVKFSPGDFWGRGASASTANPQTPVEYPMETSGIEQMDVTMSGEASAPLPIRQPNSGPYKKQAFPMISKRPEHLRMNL

CCC(C)NC(=O)c1c(N)n(CCCOC)c2nc3ccccc3nc12 (configuration not stated)
IC50 [1]: 802 nM (active)

CC(=NNC(=N)N)c1cc(NC(=O)NCCCCCCNC(=O)Nc2cc(C(C)=NNC(=N)N)cc(C(C)=NNC(=N)N)c2)cc(C(C)=NNC(=N)N)c1
Ki [2]: > 6310 nM (inactive) | Ki [3]: 316 nM (active) | Ki [4]: 631 nM (active) | Ki [5]: 398 nM (active)

Cc1cc(N)c2cc(NC(=O)/C=C/c3ccccc3Cl)ccc2n1
EC50 (Insulin-degrading enzyme [6]): > 54700 nM (inactive) | EC50 (Insulin-degrading enzyme [7]): > 54700 nM (inactive)
